Consider ten compounds from patent publication US11891369B2, “Compounds for binding proprotein convertase subtilisin/kexin type 9” (SRX Cardio, LLC, priority 2016, dated 2024).

A value given as a limit tells only on which side of the number the result lay.

Assay [1] has as its target T1, PCSK9 (Homo sapiens, UniProt Q8NBP7).
T1 construct: host or cells: added to HepG2, HuH7, FL83B or shPCSK9 knockdown lines
Briefly: LDLR flow cytometric analysis (LDL-R assay). The assay is classed as cell-based. To be noted: percentage recovery in the LDL-R assay at 20 uM concentration. The text has this: Cells, such as HepG2, HuH7, FL83B, or a cell line transfected with a short-hairpin PCSK9 knockdown sequence (e.g., HepG2/shPCSK9, HuH7/shPCSK9) can be cultured following routine procedures, such as those described by Benjannet et al., “Effects of the prosegment and pH on the activity of PCSK9: evidence for additional processing events” J Biol Chem. 285(52): 40965-40978 (2010), which is hereby incorporated by reference in its entirety.
LDLR levels can be measured using flow cytometry or fluorescence activated cell sorting (FACS) using protocols adapted from Benjannet et al., “Effects of the prosegment and pH on the activity of PCSK9: evidence for additional processing events” J Biol Chem. 285(52): 40965-40978 (2010) and “Composition and Methods of Use of Small Molecules as Binding Ligands for the Modulation of Proprotein Convertase Subtilisin/Kexin Type 9 (PCSK9) Protein Activity” (WO2016029037), which are incorporated by reference in their entirety.
Cells, such as HepG2, HuH7, FL83B, or a cell line transfected with a short-hairpin PCSK9 knockdown sequence such as HepG2/shPCSK9, HuH7/shPCSK9, or FL83B/shPCSK9 are cultured in media composed of complete, high glucose DMEM (Invitrogen) with 10% fetal bovine serum (Life Technologies), supplemented with penicillin-streptomycin (Life Technologies). Cells are plated in a 24-well plate, at 125 k cells/well, and cultured at 37° C. for 12-24 h. Culture media is removed and replaced with fresh culture media or culture media plus a predetermined amount of recombinant PCSK9 (final 5 ug/ml). Wells evaluating test compounds are dosed with concentrations ranging from 0 nM to 100 uM.
Following an incubation period of 4-6 hours at 37° C., the media is removed and the cells are rinsed by adding 0.5 ml of complete D-PBS (i.e., Dulbecco's phosphate buffered saline (D-PBS, Life Technologies) supplemented with 0.5% bovine serum albumin (BSA, Sigma) and 1 g/L glucose (Sigma)). The wash media is carefully aspirated, and cells are released from the plate using 200 uls of TrypLE Express (Life Technologies) by incubating for 5-10 minutes at 37° C. The TyrpLE-Cell suspension is inactivated by adding 100 uls of Fetal Bovine Serum, transferred to a v-bottom plate, and centrifuged at 250× gravity for 5 minutes. Following centrifugation, the supernatant is aspirated and the cell pellet is resuspended in 100 uL of complete D-PBS, and centrifuged at 250× gravity for 5 minutes. Following centrifugation, the supernatant is aspirated and the cell pellet is resuspended in 100 uls of antibody staining solution (600 uls of anti-LDLr-PE in complete D-PBS) and incubated on ice, protected from light, for 30 minutes. The cells are then pelleted by centrifugation, resuspended in 100 uL of 4′,6-Diamidino-2-phenylindole (DAPI, Cayman Chemical) or 7-aminoactinomycin D (7AAD, Life Technologies) staining solution to measure cell viability
Cells are analyzed for both cell viability marker (dead cells) and LDLR in live cells using a flow cytometer per the manufacturer's operating manual. Cells incubated with small molecule compounds that are inhibitors of PCSK9 will be expected to show increased amounts of LDLR, relative to control (no compound) specimens, and cells incubated with small molecule compounds that are activators of PCSK9 will be expected to show decreased amounts of LDLR relative to control (no compound) specimens.
For orientation: Flow cytometry measures light scatter and fluorescence of single cells or particles in a stream.

For assay [2], the target named is T1, PCSK9. Briefly: Cellular DiI-LDL uptake analysis (LDL-uptake assay). Format: cell-based. To be noted: for remaining activity at 20 µM: percentage uptake of DiI-LDL over the control at 20 uM concentration; for DiI-LDL uptake (% of control) at 20 µM: read-out: LDL-uptake % of control. The procedure:
Cells, such as HepG2, HuH7, FL83B, or a cell line transfected with a short-hairpin PCSK9 knockdown sequence such as HepG2/shPCSK9, HuH7/shPCSK9, or FL83B/shPCSK9 are plated and cultured at 37° C. for 12-24 h. Culture media is removed and replaced with fresh lipoprotein-depleted culture media supplemented with 5 ug/mL of DiI-LDL (Kalen Biomedical) or lipoprotein-depleted culture media supplemented with 5 ug/mL of DiI-LDL plus a predetermined concentration of recombinant PCSK9, for example a 10 nM final concentration of PCSK9. Lipoprotein-depleted culture media can be composed of DMEM (Invitrogen) with 10% lipoprotein-depleted fetal bovine serum (Kalen Biomedical) and supplemented with penicillin-streptomycin (Life Technologies). Cells are dosed with small molecule test compounds at doses ranging from 0 nM to 100 uM.
The lipoprotein-depleted media is removed and cells rinsed three times with phosphate buffered saline. A final volume of phosphate buffered saline is added back to the wells. The DiI fluorescence is measured with a plate reader using an exciting wavelength of 550 nm and the resulting emission at 590 nm is measured. The Hoechst stain fluorescence is measured with a plate reader using an exciting wavelength of 355 nm and the resulting emission at 460 nm is measured.
Cells are analyzed by for both Hoechst stain (DNA content) and DiI-LDL fluorescence.

T1 sequence (Q8NBP7 153-692): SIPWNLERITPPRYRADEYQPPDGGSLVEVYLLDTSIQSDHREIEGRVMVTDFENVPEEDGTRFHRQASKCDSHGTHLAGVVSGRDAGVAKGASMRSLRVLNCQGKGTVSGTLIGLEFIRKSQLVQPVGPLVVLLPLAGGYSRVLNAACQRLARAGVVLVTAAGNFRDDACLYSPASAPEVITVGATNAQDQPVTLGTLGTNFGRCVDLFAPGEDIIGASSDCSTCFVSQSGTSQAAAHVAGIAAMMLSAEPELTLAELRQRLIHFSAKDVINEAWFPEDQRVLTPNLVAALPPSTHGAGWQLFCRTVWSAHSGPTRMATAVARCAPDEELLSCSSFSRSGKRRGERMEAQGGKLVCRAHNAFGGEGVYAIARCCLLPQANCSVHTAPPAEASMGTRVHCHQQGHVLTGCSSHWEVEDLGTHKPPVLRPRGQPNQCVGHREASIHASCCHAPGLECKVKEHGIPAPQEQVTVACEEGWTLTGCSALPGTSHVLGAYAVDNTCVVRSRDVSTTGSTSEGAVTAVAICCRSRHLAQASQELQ

Consider `O=S(=O)(c1ccc(N2CCNCC2)c2ccccc12)C1CCNCC1` [compound 7, 1-(4-(Piperidin-4-ylsulfonyl)naphthalen-1-yl)piperazine], for which the “LDL-R % Recovered” value on PCSK9 [1] is “+ (0-10% recovery)”. In addition, the remaining activity (in general, the signal under treatment as a percentage of the control signal) at 20 µM at PCSK9 [2] was more than 150%.
`O=S(=O)(Nc1ccccc1)c1ccc(N2CCNCC2)c2ccccc12` [compound 73, N-phenyl-4-(piperazin-1-yl)naphthalene-1-sulfonamide]: at PCSK9 [1], the “LDL-R % Recovered” value is on record as “+ (0-10% recovery)”. Further, the remaining activity at 20 µM on PCSK9 [2] was in the range of 100 to 150%.
Take `NC(=O)N1CCN(c2cccc3ccccc23)CC1` [compound 11, 4-(Naphthalen-1-yl)piperazine-1-carboxamide]: at PCSK9 [1], the “LDL-R % Recovered” value is “+ (0-10% recovery)”. The DiI-LDL uptake (% of control) at 20 µM on PCSK9 [2] is less than 100%.
On to `Cc1ccc(C2CCNCC2)c2ccccc12` [compound 43, 4-(4-Methylnaphthalen-1-yl)piperidine], for which, at PCSK9 [1], the “LDL-R % Recovered” value was “++ (10-30% recovery)”. Besides, the remaining activity at 20 µM on PCSK9 [2] was more than 150%.
With `c1ccc2c(N3CCNCC3)cccc2c1` [compound 107, 1-(naphthalen-1-yl)piperazine], at PCSK9 [1], the “LDL-R % Recovered” value was “++ (10-30% recovery)”. Besides, the DiI-LDL uptake (% of control) at 20 µM at PCSK9 [2] was more than 150%.
`FC(F)(F)c1ccc(N2CCNCC2)c2ccccc12` [compound 1, 1-(4-(Trifluoromethyl)naphthalen-1-yl)piperazine]: the “LDL-R % Recovered” value on PCSK9 [1] is “+++ (>30% recovery)”. Further, the DiI-LDL uptake (% of control) at 20 µM on PCSK9 [2] was more than 150%.
For the compound `O=C(c1ccc(N2CCNCC2)c2ccccc12)N1CCNCC1` [compound 8, Piperazin-1-yl(4-(piperazin-1-yl)naphthalen-1-yl)methanone], on PCSK9 [1], the “LDL-R % Recovered” value was “+ (0-10% recovery)”. Further, on PCSK9 [2], the remaining activity at 20 µM is more than 150%.
The like results for `c1ccc2c(N3CCNCC3)ccc(OC3CCNCC3)c2c1` [compound 4, 1-(4-(Piperidin-4-yloxy)naphthalen-1-yl)piperazine] were, in that order, “+ (0-10% recovery)” and more than 150%.
Consider `c1ccc2c(N3CCNCC3)ccc(NC3CCNCC3)c2c1` [compound 5, N-(4-(Piperazin-1-yl)naphthalen-1-yl)piperidin-4-amine], for which the “LDL-R % Recovered” value on PCSK9 [1] is listed as “++ (10-30% recovery)”. Also, the remaining activity at 20 µM on PCSK9 [2] is less than 100%.
Take `O=S(=O)(c1ccc(C2CCNCC2)c2ccccc12)C1CCNCC1` [compound 23, 4-((4-(Piperidin-4-yl)naphthalen-1-yl)sulfonyl)piperidine]: on PCSK9 [1], the “LDL-R % Recovered” value was “+ (0-10% recovery)”. At PCSK9 [2], the remaining activity at 20 µM was more than 150%.
